Results: paper PMC8431481, “Peptide Derivatives of the Zonulin Inhibitor Larazotide (AT1001) as Potential Anti SARS-CoV-2: Molecular Modelling, Synthesis and Bioactivity Evaluation” (International Journal of Molecular Sciences, 2021)
Like-named read-outs stand apart in the source and are kept apart here. Where a SMILES comes first, the peptide text is derived from it. The star is where a group is joined. Piv = CC(C)(C)C(=O)*

How the values were obtained:
[1] = target: T1, recombinant SARS-CoV-2 M^pro (Severe acute respiratory syndrome coronavirus 2, UniProt P0DTD1); assay type: biochemical; conditions: relative to concentration range 0.1–1 µM
T1 construct: The virus enzyme, called 3CLpro or main protease (M^pro), is essential for viral replication; purchased Proteros

[2] = test system: SARS-CoV-2 clinical strain UC-1074; conditions: for EC50: clinical strain UC-1074, 24 h; for activity against SARS-CoV-2 (in words): Vero cells, strains UC-1074 and UC-1075
[3] = test system: SARS-CoV-2 clinical strain UC-1075; conditions: clinical strain UC-1075, 24 h
[4] = test system: human cytomegalovirus (HCMV) strain AD-169; conditions: read-out: Antiviral Activity (EC50) AD-169 Strain; HEL cells, virus input 100 CCID50
[5] = test system: human cytomegalovirus (HCMV) strain Davis; conditions: read-out: Antiviral Activity (EC50) Davis Strain; HEL cells, virus input 100 CCID50
[6] = test system: varicella-zoster virus (VZV) wild-type strain Oka; conditions: read-out: Antiviral Activity (EC50) TK+ VZV Strain OKA; HEL cells, virus input 20 PFU
[7] = test system: thymidine kinase deficient (TK−) VZV strain 07−1; conditions: read-out: Antiviral Activity (EC50) TK-VZV Strain 07–1; HEL cells, virus input 20 PFU
in vitro = conditions: African green monkey
[8] = test system: human embryonic lung (HEL) fibroblasts; test: Cytotoxicity, cell morphology (MCC) in HEL cells
[9] = test system: human embryonic lung (HEL) fibroblasts; test: Cytostatic activity, cell growth (CC50) in HEL cells; conditions: read-out: Cytotoxicity Cell Growth (CC50); HEL cells, Table 3 (VZV tests)
[10] = test system: SARS-CoV-2 clinical strain UC-1074; test: microbe, parasite or virus in culture; conditions: Severe acute respiratory syndrome coronavirus 2, UC1074, Vero, 120 h, read-out: Antiviral Activity (EC50) UC-1074
[11] = test system: SARS-CoV-2 clinical strain UC-1075; test: microbe, parasite or virus in culture; conditions: Severe acute respiratory syndrome coronavirus 2, UC1075, Vero, 120 h, read-out: Antiviral Activity (EC50) UC-1075
[12] = test system: varicella-zoster virus (VZV) wild-type strain Oka; test: microbe, parasite or virus in culture; conditions: Human alphaherpesvirus 3, HEL, read-out: Antiviral Activity (EC50) TK+ VZV Strain OKA
SARS-CoV-2 = conditions: read-out: EC50 (reported value); cited from earlier work
[13] = test system: human cytomegalovirus (HCMV) strain AD-169; test: microbe, parasite or virus in culture; conditions: Human betaherpesvirus 5, AD169, HEL, read-out: Antiviral Activity (EC50) AD-169 Strain
[14] = test system: human cytomegalovirus (HCMV) strain Davis; test: microbe, parasite or virus in culture; conditions: Human betaherpesvirus 5, HEL, read-out: Antiviral Activity (EC50) Davis Strain
[15] = Cytostatic activity, cell growth (CC50) in HEL cells; conditions: human, HEL 299 human embryonic lung fibroblasts

Structure (SMILES)	Inhibition [1] [%]	EC50 [2] [µM]	EC50 [3] [µM]	Cytotoxicity Cell Morphology (MCC) (Vero cells; Vero cells) [µM]	EC50 [4] [µM]	EC50 [5] [µM]	EC50 [6] [µM]	EC50 [7] [µM]	CC50 (in vitro) [µM]	Cytotoxicity Cell Morphology (MCC) ([8]; Table 2 (HCMV tests)) [µM]	Cytotoxicity Cell Morphology (MCC) ([8]; Table 3 (VZV tests)) [µM]	also measured
CNC(=O)[C@@H](NC(=O)[C@H](CC(C)C)NC(=O)[C@@H](NC(=O)CNC(C)=O)C(C)C)C(C)C [Peptide 6, Ac-GVLV-NHCH3] (Ac-GVLV-NHMe)	25.0 ± 0.5	≥ 20	> 20	100	> 4	> 20	> 20	> 20	77.4 ± 0.7	≥20	100	
CNC(=O)CNC(=O)[C@@H]1CCCN1C(=O)[C@H](CCC(N)=O)NC(=O)[C@@H](NC(=O)[C@H](CC(C)C)NC(=O)[C@@H](NC(=O)CNC(=O)CNC(=O)C(C)(C)C)C(C)C)C(C)C [Peptide 4] (Piv-GGVLVQPG-NHMe)	26.2 ± 0.3	≥ 20	> 20	100	> 20	100	78.2	> 100	74.9 ± 4.9	100	≥100	
O=c1[nH]c(=O)n([C@H]2C[C@H](O)[C@@H](CO)O2)cc1/C=C/Br [Birivudine, reference compound]							0.23 ± 0.04	2.13			>300.3	CC50 [9]: > 300 µM
CC(=O)NCC(=O)NCC(=O)N[C@H](C(=O)N[C@@H](CC(C)C)C(=O)N[C@H](C(=O)N[C@@H](CCC(N)=O)C(=O)N1CCC[C@H]1C(=O)NCC(N)=O)C(C)C)C(C)C [Peptide 2] (Ac-GGVLVQPG-NH2)	27.1 ± 0.5		> 20	100	> 20	> 20	50.1	48.4	83 ± 17	≥20	>100	
CCC(CC)COC(=O)[C@H](C)N[P@](=O)(OC[C@H]1O[C@@](C#N)(c2ccc3c(N)ncnn23)[C@H](O)[C@@H]1O)Oc1ccccc1 [Remdesivir, reference compound]				100					70.6 ± 4.9			EC50 [10]: 0.89 ± 0.44 µM; EC50 [11]: 1.06 ± 0.44 µM
Nc1nc2c(ncn2COCCO)c(=O)[nH]1 [Aciclovir]												EC50 [12]: 8.39 µM
Cc1cc(C(=O)NC(C)C(=O)NC(C(=O)NC(CC(C)C)C(=O)NC(C=CC(=O)OCc2ccccc2)CC2CCNC2=O)C(C)C)no1 (stereo not shown) [Peptide N3]												EC50 (SARS-CoV-2): 16.8 ± 1.7 µM
CNC(=O)[C@H](CCC(N)=O)NC(=O)[C@@H](NC(=O)[C@H](CC(C)C)NC(=O)[C@@H](NC(=O)CNC(C)=O)C(C)C)C(C)C [Peptide 5, Ac-GVLVQ-NHCH3] (Ac-GVLVQ-NHMe)	27.0 ± 1.1	> 20	> 20	100	> 20	> 100	59.8	> 100	75 ± 2.2	≥100	>100	activity against SARS-CoV-2 (in words) [2]: negligible activity
CNC(=O)CNC(=O)[C@@H]1CCCN1C(=O)[C@H](CCC(N)=O)NC(=O)[C@@H](NC(=O)[C@H](CC(C)C)NC(=O)[C@@H](NC(=O)CNC(=O)CNC(C)=O)C(C)C)C(C)C [Peptide 3] (Ac-GGVLVQPG-NHMe)	27.4 ± 1.1	> 20	> 20	100	> 20	> 100	58.1	81.1	81.8 ± 2.1	≥20	>100	activity against SARS-CoV-2 (in words) [2]: negligible activity
CC(C)C[C@H](NC(=O)[C@@H](NC(=O)CNC(=O)CN)C(C)C)C(=O)N[C@H](C(=O)N[C@@H](CCC(N)=O)C(=O)N1CCC[C@H]1C(=O)NCC(=O)O)C(C)C [AT1001 (1), Larazotide acetate, reference compound] (H-GGVLVQPG-OH)	27.7 ± 0.2	> 20	> 20		> 20	> 20	44.1	59.1	82.5 ± 6.2	≥100	≥100	Cytotoxicity Cell Morphology (MCC) (Vero cells): 100 µM
Nc1ccn(C[C@@H](CO)OCP(=O)(O)O)c(=O)n1 [Cidofovir]										≥317		EC50 [13]: 1.27 ± 0.18 µM; EC50 [14]: 0.67 ± 0.49 µM; CC50 at 3 days [15]: 159 ± 76.5 µM
Nc1nc(O)c2ncn(COC(CO)CO)c2n1 [Ganciclovir]										≥394		EC50 [13]: 2.56 ± 0.23 µM; EC50 [14]: 1.18 µM; CC50 at 3 days [15]: 350 µM
